Peptide text beside a SMILES is read from it.
Target: T1, CRF1R (Homo sapiens, UniProt P34998)
T1 sequence (P34998 24-415): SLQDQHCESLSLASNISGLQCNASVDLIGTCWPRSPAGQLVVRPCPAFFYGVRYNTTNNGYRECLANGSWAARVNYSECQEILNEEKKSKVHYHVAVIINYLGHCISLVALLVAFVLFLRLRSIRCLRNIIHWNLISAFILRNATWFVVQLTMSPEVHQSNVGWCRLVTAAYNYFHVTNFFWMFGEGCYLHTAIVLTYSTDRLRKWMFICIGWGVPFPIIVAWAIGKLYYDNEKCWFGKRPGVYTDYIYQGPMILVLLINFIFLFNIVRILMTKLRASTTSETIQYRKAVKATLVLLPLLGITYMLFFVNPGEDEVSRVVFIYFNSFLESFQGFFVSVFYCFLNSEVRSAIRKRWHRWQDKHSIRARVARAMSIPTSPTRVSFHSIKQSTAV
Assay: CRF1R agonist activation (EC50 / Emax), called comparative CRF binding
Type: cell-based
Details: for EC50: read-out: CRF1R EC50
Source text: The pharmacological activity and selectivity of the peptides of present invention can be determined using published test procedures. See, e.g, U.S. patent application Ser. No. 09/799,978 (now issued U.S. Pat. No. 6,670,140). Because CRF2R and CRF1R are homologous proteins, it is expected that a certain proportion of agonists for CRF2R will also function as agonists of CRF1R. As discussed above, activation of CRF1R induces activation of the HPA axis since increased corticosteroid production leads to skeletal muscle atrophy. In most cases in which an increase in muscle mass or function is desired, it is not desirable to activate the HPA axis.
Cell-based assays include the steps of contacting cells which express CRF1R or CRF2R with a peptide of the present invention or control and measuring activation of the CRFR by measuring the expression or activity of components of the CRFR signal transduction pathways.
For example, after contact with a peptide of the present invention, lysates of the cells can be prepared and assayed for induction of cAMP. cAMP is induced in response to Gαs activation. Because Gαs is activated by receptors other than CRFR and because a test peptide may be exerting its effect through CRFRs or by another mechanism, two control comparisons are relevant for determining whether the peptide increases levels of cAMP via activation of a CRFR. One control compares the cAMP level of cells contacted with the peptide and the cAMP level of cells contacted with a control compound (i.e., the vehicle in which the peptide is dissolved).
In one example, cAMP induction is measured with the use of DNA constructs containing the cAMP responsive element linked to any of a variety of reporter genes can be introduced into cells expressing CRFRs. Such reporter genes include, but are not limited to, chloramphenicol acetyltransferase (CAT), luciferase, glucuronide synthetase, growth hormone, fluorescent proteins (e.g., Green Fluorescent Protein), or alkaline phosphatase. Following exposure of the cells to the peptide, the level of reporter gene expression can be quantitated to determine the peptide's ability to increase cAMP levels and thus determine the peptide's ability to activate the CRFR.
In addition to using cells expressing full length CRFRs, cells can be engineered which express CRFRs containing the ligand binding domain of the receptor coupled to, or physically modified to contain, reporter elements or to interact with signaling proteins. For example, a wild type CRFR or CRFR fragment can be fused to a G-protein resulting in activation of the fused G-protein upon agonist binding to the CRFR portion of the fusion protein. […] In addition, alternative pathways for induction of the CRE reporter could be eliminated to reduce basal levels.

SMILES | EC50 | Emax (read-out: CRF1R Emax)
CC[C@H](C)[C@H](N)C(=O)N[C@H](C(=O)N[C@@H](CC(C)C)C(=O)N[C@@H](CO)C(=O)N[C@@H](CC(C)C)C(=O)N[C@@H](CC(=O)O)C(=O)N[C@H](C(=O)N1CCC[C@H]1C(=O)N[C@H](C(=O)NCC(=O)N[C@@H](CC(C)C)C(=O)N[C@@H](CC(C)C)C(=O)N[C@@H](CCC(N)=O)C(=O)N[C@H](C(=O)N[C@@H](CC(C)C)C(=O)N[C@@H](CC(C)C)C(=O)N[C@@H](CCC(=O)O)C(=O)N[C@@H](CCC(N)=O)C(=O)N[C@@H](C)C(=O)N[C@@H](CCCCN)C(=O)N[C@@H](C)C(=O)N[C@@H](CCCNC(=N)N)C(=O)N[C@@H](C)C(=O)N[C@@H](C)C(=O)N[C@@H](CCCNC(=N)N)C(=O)N[C@@H](CCC(=O)O)C(=O)N[C@@H](CCC(N)=O)C(=O)N[C@@H](C)C(=O)N[C@H](C(=O)N[C@H](C(=O)N[C@@H](CC(N)=O)C(=O)N[C@@H](C)C(=O)N[C@@H](CCCNC(=N)N)C(=O)N[C@H](C(=O)N[C@@H](CC(C)C)C(=O)N[C@@H](C)C(=O)N[C@@H](CCCNC(=N)N)C(=O)N[C@H](C(N)=O)C(C)C)[C@@H](C)CC)[C@@H](C)O)[C@@H](C)O)[C@@H](C)CC)[C@@H](C)CC)C(C)C)C(C)C [compound 127] (H-IVLSLDVPIGLLQILLEQAKARAAREQATTNARILARV-NH2; N-terminus assumed) | > 0.1 µM | –
CC[C@H](C)[C@H](N)C(=O)N[C@H](C(=O)N[C@@H](CC(C)C)C(=O)N[C@@H](CO)C(=O)N[C@@H](CC(C)C)C(=O)N[C@@H](CC(=O)O)C(=O)N[C@H](C(=O)N1CCC[C@H]1C(=O)N[C@H](C(=O)NCC(=O)N[C@@H](CC(C)C)C(=O)N[C@@H](CC(C)C)C(=O)N[C@@H](CCC(N)=O)C(=O)N[C@H](C(=O)N[C@@H](CC(C)C)C(=O)N[C@@H](CC(C)C)C(=O)N[C@@H](CCC(=O)O)C(=O)N[C@@H](CCC(N)=O)C(=O)N[C@H](C(=O)N[C@@H](CCCCN)C(=O)N[C@@H](C)C(=O)N[C@@H](CCCNC(=N)N)C(=O)N[C@@H](C)C(=O)N[C@@H](C)C(=O)N[C@@H](CCCNC(=N)N)C(=O)N[C@@H](CCC(=O)O)C(=O)N[C@@H](CCC(N)=O)C(=O)N[C@@H](C)C(=O)N[C@H](C(=O)N[C@H](C(=O)N[C@@H](CC(N)=O)C(=O)N[C@@H](C)C(=O)N[C@@H](CCCNC(=N)N)C(=O)N[C@H](C(=O)N[C@@H](CC(C)C)C(=O)N[C@@H](C)C(=O)N[C@@H](CCCNC(=N)N)C(=O)N[C@H](C(N)=O)C(C)C)[C@@H](C)CC)[C@@H](C)O)[C@@H](C)O)[C@@H](C)O)[C@@H](C)CC)[C@@H](C)CC)C(C)C)C(C)C [compound 129] (H-IVLSLDVPIGLLQILLEQTKARAAREQATTNARILARV-NH2; N-terminus assumed) | > 0.1 µM | –
CC[C@H](C)[C@H](N)C(=O)N[C@H](C(=O)N[C@@H](CC(C)C)C(=O)N[C@@H](CO)C(=O)N[C@@H](CC(C)C)C(=O)N[C@@H](CC(=O)O)C(=O)N[C@H](C(=O)N1CCC[C@H]1C(=O)N[C@H](C(=O)NCC(=O)N[C@@H](CC(C)C)C(=O)N[C@@H](CC(C)C)C(=O)N[C@@H](CCC(N)=O)C(=O)N[C@H](C(=O)N[C@@H](CC(C)C)C(=O)N[C@@H](CC(C)C)C(=O)N[C@@H](CCC(=O)O)C(=O)N[C@@H](CCC(N)=O)C(=O)N[C@@H](C)C(=O)N[C@@H](CCCNC(=N)N)C(=O)N[C@@H](C)C(=O)N[C@@H](CCCNC(=N)N)C(=O)N[C@@H](C)C(=O)N[C@@H](C)C(=O)N[C@@H](CCCNC(=N)N)C(=O)N[C@@H](CCC(=O)O)C(=O)N[C@@H](CCC(N)=O)C(=O)N[C@@H](C)C(=O)N[C@H](C(=O)N[C@H](C(=O)N[C@@H](CC(N)=O)C(=O)N[C@@H](C)C(=O)N[C@@H](CCCNC(=N)N)C(=O)N[C@H](C(=O)N[C@@H](CC(C)C)C(=O)N[C@@H](C)C(=O)N[C@@H](CCCNC(=N)N)C(=O)N[C@H](C(=O)N[C@@H](CCSC)C(N)=O)C(C)C)[C@@H](C)CC)[C@@H](C)O)[C@@H](C)O)[C@@H](C)CC)[C@@H](C)CC)C(C)C)C(C)C [compound 356] (H-IVLSLDVPIGLLQILLEQARARAAREQATTNARILARVM-NH2) | – | 9%
